Source: patent publication US8318792B2, “Therapeutic agent for amyotrophic lateral sclerosis” (Nippon Medical School Foundation, priority 2006, dated 2012)

Key:
Format in all cases: in vivo, mouse
G1H-G93A transgenic mice [1] = experiment: Histopathological study: number of spinal cord anterior horn cells; settings: end stage, 5 mg/kg oral daily from 80th day after birth (before onset)
Method: The mouse supplied to the experiment is anesthetized by intraperitoneal injection of pentobarbital sodium in an amount of 1 mL per kg of the mouse body weight. After confirming that the mouse is completely under anesthesia, laparotomy and thoracotomy are performed, and blood is completely removed from the visceral organs of the whole body by perfusion of physiological saline at 37° C. via the left ventricle and aorta. The complete removal of blood from the visceral organs of the whole body is carried out by confirming complete removal of the blood of the aorta in the thoracic part and abdominal part, mesenteric arteries, liver, kidneys, and small arteries on the surfaces of the stomach, small intestine and large intestine under direct visual inspection. Subsequently, perfusion of 50 mL of physiological saline at 37° C. is performed. Immediately thereafter, the perfusion is performed with a fixative (4% paraformaldehyde supplemented with 0.1 M cacodylate buffer, pH 7.4). The spinal cord is removed and re-fixed with the same fixative for 18 hours. After the fixation of spinal cord tissue, each spinal cord segments is cut out to examine the spinal cord tissue. For the detailed analyses of spinal cord tissues, two segments of the cervical spinal cord (upper and lower cervical segments), three segments of the thoracic spinal cord (upper, middle, and lower thoracic segments), and two segments of lumbar spinal cord (upper and lower lumbar segments) were cut out to provide seven segments in total. Each spinal cord segments are respectively embedded in paraffin to produce paraffin blocks, and then cut into paraffin sections having a thickness of 5 μm using a microtome. The paraffin sections are subjected to hematoxylin and eosin (HE) staining.
For a quantitative analysis, serial 25 paraffin sections having a thickness of 5 μm were produced in series from the respective segment paraffin blocks of the spinal cord, and the 1st section, 7th section, 13th section, 19th section and 25th section were selected and subjected to HE staining. Specifically, paraffin sections were selected such that one paraffin section was taken at a […], and 5 HE preparations were produced from a single spinal cord segments. Therefore, 10 HE preparations from two areas for the entire cervical spinal cord, 15 HE preparations from three areas for the entire thoracic spinal cord, and 10 HE preparations from two areas for the entire lumbar spinal cord, were produced.
In order to calculate the number of motor neurons in the anterior horn, all of the HE stained sections were observed under a light microscope (BX41: Olympus Corp., Tokyo, Japan) equipped with a 3CCD digital color camera system for the microscope (FX380: Olympus Corp., Tokyo, Japan). Subsequently, photographs of the anterior horn region (corresponding to VII, VIII and IX Rexed areas) in the HE stained sections of the respective myelomere tissues of the spinal cord were taken, and the images were analyzed using an image analysis-filing software (FLVFS-LS Ver. 1.12: Olympus Corp., Tokyo, Japan). In regard to the definition of the motor neuron in the anterior horn of spinal cord (spinal cord anterior horn cells), cells in the HE stained sections, which have a nucleus carrying a definite nucleolus and contain a cell body having a diameter of 25 μm or more, were selected as the spinal cord anterior horn cells (Klivenyi P, et al., Nature Med 1999; 5:347-351, Kong J & Xu Z, J Neurosci 1998; 18:3241-3250, and Stephens B, et al., Neuropathol Appl Neurobiol 2001; 27:352-361). Based on this definition, the number of spinal cord anterior horn cells was counted for each of the HE stained sections. The respective numbers of spinal cord anterior horn cells in the cervical spinal cord, thoracic spinal cord and lumbar spinal cord of one mouse was calculated from the total number of spinal cord anterior horn cells in five HE stained sections. […]

G1H-G93A transgenic mice [2] = experiment: Exercise tolerance test: rotarod test; settings: for Rotarod test score: 5 mg/kg oral daily from 80th day (before onset), score 0-3
Method: (§1) The following five kinds of exercise tolerance tests were conducted every fifth day from the 70th day after birth to evaluate the ability to exercise in the respective exercise tolerance tests. That is, the days for the exercise tolerance tests were every fifth days, such as the 70th day, 75th day, 80th day, 85th day and so on, after birth. The exercise tolerance tests were conducted throughout the survival period, and the post-mortem evaluation was based on the definitions of the following five kinds of exercise tolerance tests.
The apparatus used in the Rotarod test (Rota Rod Treadmill type 7600, Ugo Basile Co., Milano, Italy) is a rotating axle having a diameter of 3.6 cm, and this rotating axle is set up so as to have 16 revolution per minute (one rotation: 3.75 seconds). The period for which a mouse can remain on a rotating axle without falling is measured. The evaluation of the rotarod test for the mouse was performed based on the following criteria: Score 0=The time exceeds 60 seconds; Score 1=The time is more than 30 seconds and 60 seconds or less; Score 2=The time is more than 4 seconds and 30 seconds or less; and Score 3=The time is 4 seconds or less. The post-mortem evaluation of the rotarod test is defined as score 3.

G1H-G93A transgenic mice [3] = experiment: Exercise tolerance test: beam balance test; settings: 5 mg/kg oral daily from 80th day (before onset), score 0-2
Method: as §1
The apparatus used in the beam balance test is constructed by maintaining a wooden beam having a diameter of 1.5 cm horizontally, and installing platforms which serve as footholds, on the respective sides in a distance of 30 cm. A mouse is placed on the platform on one side, and the time taken by the mouse to cross over the beam which is 30 cm in length and to arrive at the platform on the opposite side is measured. The evaluation of the beam balance test for the mouse was performed based on the following criteria: Score 0=The time is 10 seconds or less; Score 1=The time is more than 10 seconds to 15 seconds; and Score 2=The time is more than 15 seconds, or the mouse falls down. The post-mortem evaluation of the beam balance test is defined as score 2.

[4] = per five HE sections, average±SD
[5] = from the 125th day to 140th day after birth

SMILES: N#Cc1cc(-c2n[nH]c(-c3ccncc3)n2)ccn1 [compound (b), 4-(5-pyridin-4-yl-1H-[1,2,4]triazol-3-yl)pyridine-2-carbonitrile]
- difference to placebo group in number of spinal cord anterior horn cells (cervical, thoracic or lumbar segment) (G1H-G93A transgenic mice [1]; P>0.05, Mann-Whitney's U test): no significant difference
- number of spinal cord anterior horn cells in the cervical segment (G1H-G93A transgenic mice [1]; [4]): 4.6±2.0
- number of spinal cord anterior horn cells in the lumbar segment (G1H-G93A transgenic mice [1]; [4]): 5.3±2.7
- number of spinal cord anterior horn cells in the thoracic segment (G1H-G93A transgenic mice [1]; [4]): 1.9±1.7
- Rotarod test score (G1H-G93A transgenic mice [2]; 70th day after birth, 5 mg/kg): 0.0±0.0
- Rotarod test score (G1H-G93A transgenic mice [2]; 75th day after birth, 5 mg/kg): 0.0±0.0
- Rotarod test score (G1H-G93A transgenic mice [2]; 80th day after birth, 5 mg/kg): 0.0±0.0
- Rotarod test score (G1H-G93A transgenic mice [2]; 85th day after birth, 5 mg/kg): 0.0±0.0
- Rotarod test score (G1H-G93A transgenic mice [2]; 90th day after birth, 5 mg/kg): 0.0±0.0
- Rotarod test score (G1H-G93A transgenic mice [2]; 95th day after birth, 5 mg/kg): 0.0±0.0
- Rotarod test score (G1H-G93A transgenic mice [2]; 100th day after birth, 5 mg/kg): 0.0±0.0
- Rotarod test score (G1H-G93A transgenic mice [2]; 105th day after birth, 5 mg/kg): 0.0±0.0
- effect in rotarod test as compared to placebo group (G1H-G93A transgenic mice [2]; 105th, 110th and 115th day, 5 mg/kg oral daily from 80th day after birth, Mann-Whitney's U test): significant effects
- Rotarod test score (G1H-G93A transgenic mice [2]; 110th day after birth, 5 mg/kg): 0.5±0.7
- Rotarod test score (G1H-G93A transgenic mice [2]; 115th day after birth, 5 mg/kg): 1.3±1.1
- Rotarod test score (G1H-G93A transgenic mice [2]; 120th day after birth, 5 mg/kg): 2.5±0.5
- Rotarod test score (G1H-G93A transgenic mice [2]; 125th day after birth): 3.0 ± 0.0
- Rotarod test score (G1H-G93A transgenic mice [2]; 130th day after birth): 3.0 ± 0.0
- Rotarod test score (G1H-G93A transgenic mice [2]; 135th day after birth): 3.0 ± 0.0
- Rotarod test score (G1H-G93A transgenic mice [2]; 140th day after birth): 3.0 ± 0.0
- Rotarod test score (G1H-G93A transgenic mice [2]; [5]): 3.0±0.0
- Beam balance test score (G1H-G93A transgenic mice [3]; 70th day after birth, 5 mg/kg): 0.0±0.0
- Beam balance test score (G1H-G93A transgenic mice [3]; 75th day after birth, 5 mg/kg): 0.0±0.0
- Beam balance test score (G1H-G93A transgenic mice [3]; 80th day after birth, 5 mg/kg): 0.0±0.0
- Beam balance test score (G1H-G93A transgenic mice [3]; 85th day after birth, 5 mg/kg): 0.0±0.0
- Beam balance test score (G1H-G93A transgenic mice [3]; 90th day after birth, 5 mg/kg): 0.0±0.0
- Beam balance test score (G1H-G93A transgenic mice [3]; 95th day after birth, 5 mg/kg): 0.0±0.0
- Beam balance test score (G1H-G93A transgenic mice [3]; 100th day after birth, 5 mg/kg): 0.0±0.0
- Beam balance test score (G1H-G93A transgenic mice [3]; 105th day after birth, 5 mg/kg): 0.0±0.0
- Beam balance test score (G1H-G93A transgenic mice [3]; 110th day after birth, 5 mg/kg): 0.1±0.3
- Beam balance test score (G1H-G93A transgenic mice [3]; 115th day after birth, 5 mg/kg): 0.6±0.7
- Beam balance test score (G1H-G93A transgenic mice [3]; 120th day after birth, 5 mg/kg): 1.5±0.5
- Beam balance test score (G1H-G93A transgenic mice [3]; 125th day after birth): 2.0 ± 0.0
- Beam balance test score (G1H-G93A transgenic mice [3]; 130th day after birth): 2.0 ± 0.0
- Beam balance test score (G1H-G93A transgenic mice [3]; 135th day after birth): 2.0 ± 0.0
- Beam balance test score (G1H-G93A transgenic mice [3]; 140th day after birth): 2.0 ± 0.0
- Beam balance test score (G1H-G93A transgenic mice [3]; [5]): 2.0±0.0
